Source: article PMC11352108, “Anti-Biofilm and Anti-Inflammatory Properties of the Truncated Analogs of the Scorpion Venom-Derived Peptide IsCT against Pseudomonas aeruginosa” (Antibiotics, 2024)
Where no end group is shown, it is not given here.

How the values were obtained:
[1] = system: IL-6 production in P. aeruginosa LPS-stimulated RAW 264.7 macrophages; test: IL-6 measurement (sandwich ELISA); type: cell-based, murine; conditions: 48 h; for IL-6 (pg/mL), Exp.1: replicate Exp.1; for IL-6 (pg/mL), Mean: mean of 2 experiments, LPS alone 4081.029; for IL-6 (pg/mL), Exp.2: replicate Exp.2
Experimental: (§1) RAW 264.7 cells (3.5 × 10^5) were stimulated with P. aeruginosa lipopolysaccharide (100 ng/mL; Sigma, St. Louis, MO, USA) in the presence or absence of the IsCT-Δ6-8 peptide (37.5–150 μM, final concentration). After incubation at 37 °C under 5% CO2 for 48 h, supernatants were collected. The levels of nitrite (a stable breakdown of NO) were then determined using the Griess reagent system (Promega, Madison, Wisconsin, USA). The IL-6 levels in culture supernatant were quantified with the BioLegend ELISA MAXTM Deluxe Set according to the manufacturer’s protocols.

[2] = system: NO production in P. aeruginosa LPS-stimulated RAW 264.7 macrophages; test: Nitric oxide measurement (Griess reagent); type: cell-based, murine; conditions: 48 h; for Nitrite (µM), Exp.1: replicate Exp.1; for Nitrite (µM), Mean: mean of 2 experiments, LPS alone 24.5278; for Nitrite (µM), Exp.2: replicate Exp.2
Experimental: as §1

[3] = peptide 37.5 µM with LPS 100 ng/mL, 37 °C
[4] = peptide 37.5 µM with LPS 100 ng/mL
[5] = peptide 75 µM with LPS 100 ng/mL
[6] = peptide 150 µM with LPS 100 ng/mL

ILGKIIKSLF [IsCT-Δ6-8]
Effect on LPS-induced IL-6 elevation (in words) ([1]; 37.5–150 μM, especially at 150 μM (p < 0.05 vs LPS-stimulated)): reduced
IL-6 (pg/mL), Exp.1 [1, 3]: 4036.912 pg/mL
IL-6 (pg/mL), Mean [1, 4]: 3742.794 pg/mL
IL-6 (pg/mL), Exp.2 [1, 4]: 3448.676 pg/mL
IL-6 (pg/mL), Mean [1, 5]: 3664.363 pg/mL
IL-6 (pg/mL), Exp.1 [1, 5]: 3953.578 pg/mL
IL-6 (pg/mL), Exp.2 [1, 5]: 3375.147 pg/mL
IL-6 (pg/mL), Mean [1, 6]: 3304.069 pg/mL
IL-6 (pg/mL), Exp.1 [1, 6]: 3514.853 pg/mL
IL-6 (pg/mL), Exp.2 [1, 6]: 3093.284 pg/mL
Effect on LPS-induced nitrite increase (in words) ([2]; 37.5–150 μM, in particular at 150 μM (p < 0.05 vs LPS-stimulated)): reduced
Nitrite (µM), Exp.1 [2, 3]: 24.3889 µM
Nitrite (µM), Mean [2, 4]: 24.2500 µM
Nitrite (µM), Exp.2 [2, 4]: 24.1111 µM
Nitrite (µM), Mean [2, 5]: 23.5556 µM
Nitrite (µM), Exp.1 [2, 5]: 23.8889 µM
Nitrite (µM), Exp.2 [2, 5]: 23.2222 µM
Nitrite (µM), Mean [2, 6]: 21.0833 µM
Nitrite (µM), Exp.1 [2, 6]: 21.5000 µM
Nitrite (µM), Exp.2 [2, 6]: 20.6667 µM
